In the NIST ThermoML archive (doi:10.1016/j.tca.2016.01.016):
Where “and” joins values, the source holds several entries; their conditions need not be identical. Equal entries are not always repeated. ± gives the expanded uncertainty stated by the source.

Experiment: molar heat capacity at constant pressure
Conditions: 101.33 kPa, Crystal, Small sample (50 mg) DSC

O=P([O-])([O-])[O-].[Er+3] [erbium phosphate]
Conditions	molar heat capacity at constant pressure
348.15 K	113.7 ± 10 J/K/mol and 113.8 ± 9.2 J/K/mol
353.15 K	114.5 ± 9.5 J/K/mol and 114.6 ± 9.3 J/K/mol
358.15 K	115.2 ± 9.5 J/K/mol and 115.3 ± 9.4 J/K/mol
363.15 K	115.9 ± 9.7 J/K/mol and 116.1 ± 9.4 J/K/mol
368.15 K	116.4 ± 10 J/K/mol and 116.8 ± 9.5 J/K/mol
373.15 K	116.8 ± 11 J/K/mol and 117.4 ± 9.5 J/K/mol
378.15 K	117.4 ± 12 J/K/mol and 118.1 ± 9.6 J/K/mol
383.15 K	118.1 ± 12 J/K/mol and 118.8 ± 9.7 J/K/mol
388.15 K	119.1 ± 12 J/K/mol and 119.4 ± 9.7 J/K/mol
393.15 K	119.9 ± 12 J/K/mol and 120 ± 9.7 J/K/mol
398.15 K	120.7 ± 12 J/K/mol and 120.6 ± 9.8 J/K/mol
403.15 K	121.5 ± 11 J/K/mol and 121.2 ± 9.8 J/K/mol
408.15 K	122.2 ± 11 J/K/mol and 121.8 ± 9.9 J/K/mol
413.15 K	122.9 ± 11 J/K/mol and 122.4 ± 9.9 J/K/mol
418.15 K	123.5 ± 11 J/K/mol and 123 ± 10 J/K/mol
423.15 K	124 ± 11 J/K/mol and 123.5 ± 10 J/K/mol
428.15 K	124.5 ± 12 J/K/mol and 124.1 ± 10 J/K/mol
433.15 K	125 ± 12 J/K/mol and 124.6 ± 10 J/K/mol
438.15 K	125.4 ± 12 J/K/mol and 125.1 ± 10 J/K/mol
443.15 K	125.9 ± 12 J/K/mol and 125.6 ± 10 J/K/mol
448.15 K	126.4 ± 12 J/K/mol and 126.1 ± 10 J/K/mol
453.15 K	126.9 ± 12 J/K/mol and 126.6 ± 10 J/K/mol
458.15 K	127.4 ± 12 J/K/mol and 127.1 ± 10 J/K/mol
463.15 K	127.8 ± 12 J/K/mol and 127.6 ± 10 J/K/mol
468.15 K	128.2 ± 13 J/K/mol and 128 ± 10 J/K/mol
473.15 K	128.7 ± 13 J/K/mol and 128.5 ± 10 J/K/mol
478.15 K	129.1 ± 13 J/K/mol and 129 ± 10 J/K/mol
483.15 K	129.5 ± 13 J/K/mol and 129.4 ± 10 J/K/mol
488.15 K	129.9 ± 13 J/K/mol and 129.8 ± 10 J/K/mol
493.15 K	130.3 ± 13 J/K/mol and 130.3 ± 11 J/K/mol
498.15 K	130.7 ± 13 J/K/mol and 130.7 ± 11 J/K/mol
503.15 K	131.1 ± 13 J/K/mol and 131.1 ± 11 J/K/mol
508.15 K	131.5 ± 13 J/K/mol and 131.5 ± 11 J/K/mol
513.15 K	132 ± 13 J/K/mol and 131.9 ± 11 J/K/mol
518.15 K	132.4 ± 13 J/K/mol and 132.3 ± 11 J/K/mol
523.15 K	132.8 ± 13 J/K/mol and 132.7 ± 11 J/K/mol
528.15 K	133.2 ± 12 J/K/mol and 133.1 ± 11 J/K/mol
533.15 K	133.6 ± 12 J/K/mol and 133.4 ± 11 J/K/mol
538.15 K	134 ± 12 J/K/mol and 133.8 ± 11 J/K/mol
543.15 K	134.5 ± 12 J/K/mol and 134.2 ± 11 J/K/mol
548.15 K	134.8 ± 12 J/K/mol and 134.5 ± 11 J/K/mol
553.15 K	135.1 ± 12 J/K/mol and 134.9 ± 11 J/K/mol
558.15 K	135.4 ± 12 J/K/mol and 135.2 ± 11 J/K/mol
563.15 K	135.8 ± 12 J/K/mol and 135.6 ± 11 J/K/mol
568.15 K	136.1 ± 12 J/K/mol and 135.9 ± 11 J/K/mol
573.15 K	136.3 ± 12 J/K/mol and 136.2 ± 11 J/K/mol
578.15 K	136.6 ± 12 J/K/mol and 136.6 ± 11 J/K/mol
583.15 K	136.9 ± 12 J/K/mol and 136.9 ± 11 J/K/mol
588.15 K	137.2 ± 12 J/K/mol and 137.2 ± 11 J/K/mol
593.15 K	137.5 ± 12 J/K/mol and 137.5 ± 11 J/K/mol
598.15 K	137.8 ± 12 J/K/mol and 137.8 ± 11 J/K/mol
603.15 K	138 ± 12 J/K/mol and 138.1 ± 11 J/K/mol
608.15 K	138.3 ± 12 J/K/mol and 138.4 ± 11 J/K/mol
613.15 K	138.6 ± 12 J/K/mol and 138.7 ± 11 J/K/mol
618.15 K	138.8 ± 12 J/K/mol and 139 ± 11 J/K/mol
623.15 K	139 ± 12 J/K/mol and 139.3 ± 11 J/K/mol
628.15 K	139.3 ± 12 J/K/mol and 139.6 ± 11 J/K/mol
633.15 K	139.6 ± 12 J/K/mol and 139.9 ± 11 J/K/mol
638.15 K	139.8 ± 12 J/K/mol and 140.2 ± 11 J/K/mol
643.15 K	140.1 ± 12 J/K/mol and 140.4 ± 11 J/K/mol
648.15 K	140.3 ± 12 J/K/mol and 140.7 ± 11 J/K/mol
653.15 K	140.6 ± 11 J/K/mol and 141 ± 12 J/K/mol
658.15 K	140.9 ± 11 J/K/mol and 141.3 ± 12 J/K/mol
663.15 K	141.2 ± 11 J/K/mol and 141.5 ± 12 J/K/mol
668.15 K	141.4 ± 11 J/K/mol and 141.8 ± 12 J/K/mol
673.15 K	141.6 ± 10 J/K/mol and 142 ± 12 J/K/mol
678.15 K	141.8 ± 10 J/K/mol and 142.3 ± 12 J/K/mol
683.15 K	142.1 ± 9.8 J/K/mol and 142.5 ± 12 J/K/mol
688.15 K	142.3 ± 9.4 J/K/mol and 142.8 ± 12 J/K/mol
693.15 K	142.6 ± 9.2 J/K/mol and 143 ± 12 J/K/mol
698.15 K	142.9 ± 8.8 J/K/mol and 143.3 ± 12 J/K/mol
703.15 K	143.1 ± 8.4 J/K/mol and 143.5 ± 12 J/K/mol
708.15 K	143.5 ± 8.3 J/K/mol and 143.8 ± 12 J/K/mol
713.15 K	143.7 ± 8.1 J/K/mol and 144 ± 12 J/K/mol
718.15 K	143.9 ± 7.9 J/K/mol and 144.2 ± 12 J/K/mol
723.15 K	144.2 ± 7.7 J/K/mol and 144.4 ± 12 J/K/mol
728.15 K	144.4 ± 7.5 J/K/mol and 144.7 ± 12 J/K/mol
733.15 K	144.6 ± 7.5 J/K/mol and 144.9 ± 12 J/K/mol
738.15 K	144.8 ± 7.5 J/K/mol and 145.1 ± 12 J/K/mol
743.15 K	145 ± 7.5 J/K/mol and 145.3 ± 12 J/K/mol
748.15 K	145.2 ± 7.5 J/K/mol and 145.6 ± 12 J/K/mol
753.15 K	145.5 ± 7.3 J/K/mol and 145.8 ± 12 J/K/mol
758.15 K	145.8 ± 7.1 J/K/mol and 146 ± 12 J/K/mol
763.15 K	146.1 ± 6.9 J/K/mol and 146.2 ± 12 J/K/mol
768.15 K	146.3 ± 6.7 J/K/mol and 146.4 ± 12 J/K/mol
773.15 K	146.5 ± 6.5 J/K/mol and 146.6 ± 12 J/K/mol
778.15 K	146.8 ± 6.3 J/K/mol and 146.8 ± 12 J/K/mol
783.15 K	147 ± 6.2 J/K/mol and 147 ± 12 J/K/mol
788.15 K	147.2 ± 6 J/K/mol and 147.2 ± 12 J/K/mol
793.15 K	147.5 ± 5.6 J/K/mol and 147.4 ± 12 J/K/mol
798.15 K	147.8 ± 5.4 J/K/mol and 147.6 ± 12 J/K/mol
803.15 K	148 ± 5.2 J/K/mol and 147.8 ± 12 J/K/mol
808.15 K	148.2 ± 5.1 J/K/mol and 148 ± 12 J/K/mol
813.15 K	148.5 ± 5.1 J/K/mol and 148.2 ± 12 J/K/mol
818.15 K	148.7 ± 4.9 J/K/mol and 148.4 ± 12 J/K/mol
823.15 K	148.9 ± 4.9 J/K/mol and 148.5 ± 12 J/K/mol
828.15 K	149.1 ± 4.7 J/K/mol and 148.7 ± 12 J/K/mol
833.15 K	149.3 ± 4.7 J/K/mol and 148.9 ± 12 J/K/mol
838.15 K	149.5 ± 4.7 J/K/mol and 149.1 ± 12 J/K/mol
843.15 K	149.7 ± 4.5 J/K/mol and 149.3 ± 12 J/K/mol
848.15 K	149.9 ± 4.4 J/K/mol and 149.5 ± 12 J/K/mol
853.15 K	150.2 ± 4.5 J/K/mol and 149.6 ± 12 J/K/mol
858.15 K	150.3 ± 4.5 J/K/mol and 149.8 ± 12 J/K/mol
863.15 K	150.5 ± 4.5 J/K/mol and 150 ± 12 J/K/mol
868.15 K	150.8 ± 4.7 J/K/mol and 150.1 ± 12 J/K/mol
